# Active and inactive are the calls of the source.
# Key:
# H9c2 = assay: cells; format: functional, cell-based; details: Rattus norvegicus, H9c2, Myocardium;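 note: confirmatory concentration-response retest of ultra-high-throughput screening hits for modulation of myocardial damage; cell death induced by hydrogen peroxide oxidative stress; compound pretreatment for 60 min then peroxide exposure for 2 h; potency is for protecting the cells against peroxide damage rather than for killing them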
# Fatty acid synthase [1] = biological target: T1, Fatty acid synthase (Homo sapiens, UniProt P49327); assay: inhibition of human FAS-TE enzyme activity – biochemical, endpoint fluorescence intensity, uHTS hits, dose response (AID 624327); format: functional;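 note: fluorescence from hydrolysis of an O-methyl fluorescein acyl ester substrate by the enzyme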
# T1 sequence (P49327 whole entry): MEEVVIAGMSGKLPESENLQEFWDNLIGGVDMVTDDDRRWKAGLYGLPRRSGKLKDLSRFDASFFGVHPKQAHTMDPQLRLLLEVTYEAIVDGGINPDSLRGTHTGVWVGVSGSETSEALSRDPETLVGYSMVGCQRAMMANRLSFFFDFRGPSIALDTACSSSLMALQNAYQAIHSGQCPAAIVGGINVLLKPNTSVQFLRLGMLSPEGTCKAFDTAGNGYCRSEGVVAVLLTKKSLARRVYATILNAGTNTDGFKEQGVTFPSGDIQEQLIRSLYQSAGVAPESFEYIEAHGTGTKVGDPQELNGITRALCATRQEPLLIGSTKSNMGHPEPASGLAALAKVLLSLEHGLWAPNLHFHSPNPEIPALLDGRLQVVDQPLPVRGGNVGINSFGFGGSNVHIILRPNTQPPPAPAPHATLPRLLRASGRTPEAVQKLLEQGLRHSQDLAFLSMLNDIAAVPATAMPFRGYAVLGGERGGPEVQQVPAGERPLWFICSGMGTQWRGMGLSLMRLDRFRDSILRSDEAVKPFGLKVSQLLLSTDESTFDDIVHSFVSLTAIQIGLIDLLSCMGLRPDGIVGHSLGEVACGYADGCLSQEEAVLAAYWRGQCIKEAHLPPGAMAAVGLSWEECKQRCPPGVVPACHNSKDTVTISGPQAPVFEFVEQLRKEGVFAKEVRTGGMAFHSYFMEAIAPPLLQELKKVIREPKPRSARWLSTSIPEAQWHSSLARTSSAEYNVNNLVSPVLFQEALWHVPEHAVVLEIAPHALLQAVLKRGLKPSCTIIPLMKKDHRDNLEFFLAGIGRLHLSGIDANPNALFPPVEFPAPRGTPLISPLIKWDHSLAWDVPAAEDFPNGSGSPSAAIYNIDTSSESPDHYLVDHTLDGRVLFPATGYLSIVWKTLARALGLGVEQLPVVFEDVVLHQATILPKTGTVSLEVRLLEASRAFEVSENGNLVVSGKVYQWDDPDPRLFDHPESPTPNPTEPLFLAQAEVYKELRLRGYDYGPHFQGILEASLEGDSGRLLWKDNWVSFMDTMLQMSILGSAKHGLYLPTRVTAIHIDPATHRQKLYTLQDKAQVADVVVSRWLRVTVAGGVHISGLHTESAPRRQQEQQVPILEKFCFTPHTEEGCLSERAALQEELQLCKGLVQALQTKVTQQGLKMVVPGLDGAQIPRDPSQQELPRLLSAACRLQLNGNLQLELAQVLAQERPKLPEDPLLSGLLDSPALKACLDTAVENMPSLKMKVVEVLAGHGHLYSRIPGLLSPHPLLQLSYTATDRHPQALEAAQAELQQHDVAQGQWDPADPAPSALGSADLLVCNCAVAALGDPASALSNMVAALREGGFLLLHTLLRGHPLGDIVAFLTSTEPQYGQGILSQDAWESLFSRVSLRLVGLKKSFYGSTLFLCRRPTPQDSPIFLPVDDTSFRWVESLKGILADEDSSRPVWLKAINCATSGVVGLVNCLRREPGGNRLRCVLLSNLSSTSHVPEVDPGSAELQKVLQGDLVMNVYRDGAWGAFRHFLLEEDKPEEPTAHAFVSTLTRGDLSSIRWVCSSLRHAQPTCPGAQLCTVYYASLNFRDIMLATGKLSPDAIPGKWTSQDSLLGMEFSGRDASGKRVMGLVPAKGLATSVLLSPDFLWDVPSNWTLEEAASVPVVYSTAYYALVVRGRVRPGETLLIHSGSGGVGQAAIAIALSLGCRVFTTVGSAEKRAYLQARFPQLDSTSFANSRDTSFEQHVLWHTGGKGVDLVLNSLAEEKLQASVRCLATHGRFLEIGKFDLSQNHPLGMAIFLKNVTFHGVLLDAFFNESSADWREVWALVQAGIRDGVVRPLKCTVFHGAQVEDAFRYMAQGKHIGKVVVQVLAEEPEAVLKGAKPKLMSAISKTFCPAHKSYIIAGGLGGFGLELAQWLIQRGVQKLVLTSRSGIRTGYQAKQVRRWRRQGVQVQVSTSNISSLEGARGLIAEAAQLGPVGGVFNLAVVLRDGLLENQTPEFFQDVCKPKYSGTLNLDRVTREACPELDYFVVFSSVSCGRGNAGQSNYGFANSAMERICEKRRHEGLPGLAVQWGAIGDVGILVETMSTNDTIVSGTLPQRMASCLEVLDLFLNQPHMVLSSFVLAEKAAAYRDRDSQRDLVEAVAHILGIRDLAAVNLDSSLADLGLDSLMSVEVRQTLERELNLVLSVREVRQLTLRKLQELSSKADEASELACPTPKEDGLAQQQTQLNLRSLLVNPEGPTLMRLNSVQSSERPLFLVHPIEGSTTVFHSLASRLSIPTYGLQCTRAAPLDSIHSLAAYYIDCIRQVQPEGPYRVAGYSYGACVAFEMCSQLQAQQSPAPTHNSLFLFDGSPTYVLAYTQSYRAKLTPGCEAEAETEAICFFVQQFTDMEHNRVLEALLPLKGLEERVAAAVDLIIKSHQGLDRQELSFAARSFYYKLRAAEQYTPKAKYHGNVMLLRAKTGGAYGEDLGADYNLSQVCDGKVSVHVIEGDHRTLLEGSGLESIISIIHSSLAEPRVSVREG
# Fatty acid synthase [2] = biological target: T1, Fatty acid synthase; assay: inhibition of human FAS-TE enzyme activity – biochemical, kinetic fluorescence intensity, dose response (AID 624326); format: functional;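 note: rate of fluorescence rise from hydrolysis of a fluorogenic O-methyl fluorescein ester substrate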
# [3] = biological target: T2, Polyadenylate-binding protein 1 (Homo sapiens, UniProt P11940); assay: MLLE binding blockers, Cy5 peptide tracer – biochemical, fluorescence polarization, Cy5-PAM2 peptide, secondary, miRNA deadenylation inhibitor project, dose response (AID 602260); format: functional; details: read-out: IC50_Mean
# T2 sequence (P11940 whole entry): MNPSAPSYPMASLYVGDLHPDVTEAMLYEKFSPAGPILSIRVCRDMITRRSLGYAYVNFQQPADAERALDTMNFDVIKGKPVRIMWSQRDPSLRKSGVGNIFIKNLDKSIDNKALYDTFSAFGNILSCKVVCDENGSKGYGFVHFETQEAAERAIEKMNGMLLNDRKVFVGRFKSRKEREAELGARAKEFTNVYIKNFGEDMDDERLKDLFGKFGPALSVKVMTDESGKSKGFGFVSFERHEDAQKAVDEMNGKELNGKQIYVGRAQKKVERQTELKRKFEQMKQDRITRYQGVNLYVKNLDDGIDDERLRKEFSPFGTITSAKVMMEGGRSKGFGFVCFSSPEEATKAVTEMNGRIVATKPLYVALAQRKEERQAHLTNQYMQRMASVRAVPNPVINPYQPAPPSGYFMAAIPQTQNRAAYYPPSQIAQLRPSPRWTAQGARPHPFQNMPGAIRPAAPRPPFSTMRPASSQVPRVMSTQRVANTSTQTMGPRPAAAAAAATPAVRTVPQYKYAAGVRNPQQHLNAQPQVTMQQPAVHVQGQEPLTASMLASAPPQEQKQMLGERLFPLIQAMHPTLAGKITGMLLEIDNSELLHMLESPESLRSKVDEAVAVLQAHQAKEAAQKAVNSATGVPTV
# [4] = Luminescence Cell-Based Dose Response HTS to Identify Activators of Luciferase Translation or Activity in H4 […] Cells. [Related pubchem assays: 1829 (Project Summary), 1814 (Primary HTS)]; format: functional
# H4 = assay: Luminescence Cell-Based Dose Response HTS to Identify Activators of 5'UTR Stem-Loop Driven Prion Protein mRNA Translation in H4 Neuroglioblastoma Cells. [Related pubchem assays: 1829 (Project Summary), 1814 (Primary HTS)]; format: functional; details: Homo sapiens
# [5] = biological target: T2, Polyadenylate-binding protein 1; assay: MLLE domain peptide-binding blockers, IC50 – biochemical, fluorescence polarization, FITC-PAM2 peptide, dose response (AID 602259); format: functional; details: read-out: IC50_Mean
# [6] = Luminescence Cell-Based Dose Confirmation HTS to Identify Activators of 5'UTR Stem-Loop Driven Alpha-Synuclein mRNA Translation in H4 Neuroglioblastoma Cells. [Related pubchem assays: 1829 (Project Summary), 1814 (Primary HTS)]; format: functional
# Protein skinhead-1 = biological target: T3, Protein skinhead-1 (Caenorhabditis elegans, UniProt P34707); format: functional
# T3 sequence (P34707 whole entry): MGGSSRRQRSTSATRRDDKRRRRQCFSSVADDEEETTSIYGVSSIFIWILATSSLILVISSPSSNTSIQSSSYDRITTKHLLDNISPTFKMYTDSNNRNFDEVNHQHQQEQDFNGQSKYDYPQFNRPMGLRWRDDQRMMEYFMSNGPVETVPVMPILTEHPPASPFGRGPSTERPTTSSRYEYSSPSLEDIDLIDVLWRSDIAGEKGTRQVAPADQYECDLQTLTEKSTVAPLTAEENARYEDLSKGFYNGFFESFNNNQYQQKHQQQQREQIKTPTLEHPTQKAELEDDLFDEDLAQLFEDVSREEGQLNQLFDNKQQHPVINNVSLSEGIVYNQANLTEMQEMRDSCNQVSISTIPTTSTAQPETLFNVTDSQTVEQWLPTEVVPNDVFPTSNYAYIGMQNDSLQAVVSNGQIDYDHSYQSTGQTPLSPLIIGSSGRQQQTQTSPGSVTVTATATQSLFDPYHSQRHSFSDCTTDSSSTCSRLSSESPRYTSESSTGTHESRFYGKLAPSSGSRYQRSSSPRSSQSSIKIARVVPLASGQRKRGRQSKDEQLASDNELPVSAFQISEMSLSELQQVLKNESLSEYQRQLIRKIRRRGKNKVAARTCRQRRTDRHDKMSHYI
# [7] = biological target: T4, Ubiquitin-conjugating enzyme E2 N (Homo sapiens, UniProt P61088); format: functional;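 note: Dose-response confirmation in a TR-FRET assay detecting UBC13-driven polyubiquitin chain formation, inhibition measured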
# T4 sequence (P61088 whole entry): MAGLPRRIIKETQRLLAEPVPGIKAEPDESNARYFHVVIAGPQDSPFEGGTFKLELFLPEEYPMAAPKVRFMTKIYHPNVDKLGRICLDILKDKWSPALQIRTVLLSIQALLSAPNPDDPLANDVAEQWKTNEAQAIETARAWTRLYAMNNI
# [8] = biological target: T5, Rac GTPase-activating protein 1 (Homo sapiens, UniProt Q9H0H5); assay: blockers of MgcRacGAP-driven Rac1 GTP hydrolysis – biochemical, ADP Hunter fluorescence, primary and confirmatory, confirmation (AID 624330); format: functional
# T5 sequence (Q9H0H5 whole entry): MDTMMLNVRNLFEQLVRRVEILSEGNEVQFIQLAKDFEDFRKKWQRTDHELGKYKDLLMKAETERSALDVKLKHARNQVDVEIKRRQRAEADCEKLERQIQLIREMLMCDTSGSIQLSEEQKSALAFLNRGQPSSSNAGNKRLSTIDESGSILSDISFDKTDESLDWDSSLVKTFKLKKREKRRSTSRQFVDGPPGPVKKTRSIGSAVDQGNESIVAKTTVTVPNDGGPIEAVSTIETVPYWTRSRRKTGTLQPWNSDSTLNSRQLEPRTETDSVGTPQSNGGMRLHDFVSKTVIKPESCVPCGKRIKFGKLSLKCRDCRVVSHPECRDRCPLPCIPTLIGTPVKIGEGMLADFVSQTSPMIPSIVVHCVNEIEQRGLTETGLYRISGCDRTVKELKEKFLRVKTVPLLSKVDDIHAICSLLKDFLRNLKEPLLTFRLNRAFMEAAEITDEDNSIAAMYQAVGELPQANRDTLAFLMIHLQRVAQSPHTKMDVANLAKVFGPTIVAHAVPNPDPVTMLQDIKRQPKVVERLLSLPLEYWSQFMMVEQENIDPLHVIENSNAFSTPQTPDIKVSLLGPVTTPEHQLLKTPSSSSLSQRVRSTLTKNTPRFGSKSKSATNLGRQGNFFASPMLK
# [9] = Trypanosoma cruzi growth suppression in host cells – NIH3T3 host cells, beta-gal luminescence, confirmation (AID 2044); format: functional, cell-based;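 note: intracellular parasites grown in NIH/3T3 mouse fibroblasts as host cells; luminescent beta-galactosidase reporter signal from transgenic T. cruzi replicating inside host cells; inhibitors lower the luminescence signal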
# [10] = NIH3T3 cell viability loss – ATP luminescence, mouse fibroblasts, counter-screen, dose response (AID 2010); format: functional, cell-based;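 note: cells exposed to compound for about 90 hours before reading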
# [11] = biological target: T6, Heat shock factor protein 1 (Mus musculus, UniProt P38532); assay: decrease of HSF1-responsive luciferase luminescence – cell-based, NIH3T3, dose retest, confirmation (AID 2382); format: functional;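 note: NIH3T3 fibroblasts with HSF1-driven luciferase reporter stressed by proteasome inhibitor MG132; luminescence from HSF1-driven luciferase expression after 8 hours of MG132 stress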
# T6 sequence (P38532 whole entry): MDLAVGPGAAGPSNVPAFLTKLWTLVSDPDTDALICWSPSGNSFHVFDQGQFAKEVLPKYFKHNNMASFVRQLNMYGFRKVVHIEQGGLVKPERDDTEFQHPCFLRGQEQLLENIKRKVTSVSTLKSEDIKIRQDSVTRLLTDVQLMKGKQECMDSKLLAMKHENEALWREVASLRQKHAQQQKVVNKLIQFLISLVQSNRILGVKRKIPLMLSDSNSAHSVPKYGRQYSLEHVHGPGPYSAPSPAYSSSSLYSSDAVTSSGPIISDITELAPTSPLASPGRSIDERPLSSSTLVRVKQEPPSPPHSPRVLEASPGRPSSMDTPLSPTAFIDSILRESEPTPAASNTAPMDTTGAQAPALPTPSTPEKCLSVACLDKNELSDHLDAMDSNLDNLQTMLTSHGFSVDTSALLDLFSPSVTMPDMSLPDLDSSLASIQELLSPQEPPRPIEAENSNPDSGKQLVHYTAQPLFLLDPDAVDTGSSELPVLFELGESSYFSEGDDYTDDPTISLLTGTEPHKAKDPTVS
smiles,measurement,setting,value
Brc1ccc(-c2ccc(/C=N/Nc3nc(N4CCOCC4)nc(N4CCOCC4)n3)o2)cc1,IC50,H9c2,> 79 µM (inactive)
NC(=NOC(=O)CCC1CCCCC1)c1cccc([N+](=O)[O-])c1,IC50,Fatty acid synthase [1],6.09 µM (active)
same,IC50,Fatty acid synthase [2],6 µM (active)
O=C(Nc1ccccc1N1CCCC1)c1cc2ccccc2o1,IC50,[3],> 66 µM (inactive)
same,EC50,[4],5.42 µM (active)
same,EC50,H4,56.5 µM (active)
same,IC50,[5],> 66 µM (inactive)
same,EC50,[6],6.1 µM (active)
CCCN1C(=O)/C(=C/c2nc(O)c3ccccc3n2)c2ccccc21,IC50,H9c2,> 79 µM (inactive)
O=C(NCC(=O)N(Cc1cccs1)C(C(=O)NC1CCCC1)c1ccco1)c1cccs1 (stereo not drawn),IC50,H9c2,> 79 µM (inactive)
O=C(COc1cccc2c1CCNC2=O)Nc1ccc(F)cc1,IC50,H9c2,37.2 µM (inactive)
CC(OC(=O)Cn1[nH]c(=O)c2ccccc2c1=O)C(=O)NC1(C#N)CCCCC1 (stereo not drawn),IC50,H9c2,> 79 µM (inactive)
Cc1c(C2=CCN(S(=O)(=O)c3ccc(Cl)cc3)CC2)c2ccccc2n1C,IC50,Protein skinhead-1,> 100 µM (inactive)
CCN(CC)CCNC(=O)c1cc2c(=O)n(CC)c3ccccc3c2s1,IC50,[7],> 20 µM (inactive)
COc1ccc(CCNC(=O)Cn2c(=O)n(-c3ccc(C)c(F)c3)c(=O)c3sccc32)cc1OC,IC50,[7],> 20 µM (inactive)
O=C(CSc1ncnc2c1cnn2-c1ccccc1)NC1CCS(=O)(=O)C1 (stereo not drawn),IC50,Fatty acid synthase [1],7.65 µM (active)
same,IC50,Fatty acid synthase [2],9.44 µM (active)
Cc1cccc(NC(=O)CNC(=O)COC(=O)c2ccc(C(C)(C)C)cc2)c1C,IC50,Fatty acid synthase [1],14.6 µM (active)
same,IC50,Fatty acid synthase [2],20.7 µM (inactive)
Nn1c(=S)[nH]c2sc3c(c2c1=O)CCCC3,IC50,Protein skinhead-1,> 100 µM (inactive)
same,IC50,[8],74.3 µM (active)
O=C1CC(NNC(=O)c2ccc(Br)cc2)C(=O)N1 (stereo not drawn),IC50,Protein skinhead-1,> 100 µM (inactive)
COc1ccccc1NS(=O)(=O)c1cc(NC(=O)Cc2nnc(O)c3ccccc23)ccc1Cl,IC50,H9c2,20 µM (active)
O=C(NC1CCCCC1)N(c1ccccc1)c1nnc(-c2cccc([N+](=O)[O-])c2)s1,IC50,Fatty acid synthase [1],6.12 µM (active)
same,IC50,Fatty acid synthase [2],7.21 µM (active)
COCCOC(=O)C1=C(C)NC(=O)NC1c1c(Cl)nc2ccccn2c1=O (stereo not drawn),IC50,[3],> 66 µM (inactive)
same,IC50,[5],> 66 µM (inactive)
COc1cc2[nH]c(=S)n(CCN3CCCCC3C)c(=O)c2cc1OC (stereo not drawn),IC50,Protein skinhead-1,> 100 µM (inactive)
CCN(CC)S(=O)(=O)c1ccc(-n2cnc3cc(C)c(C)cc32)nc1,IC50,Fatty acid synthase [1],11.4 µM (active)
same,IC50,Fatty acid synthase [2],12.8 µM (active)
COc1ccc(C(O)CNc2ccc(C)cc2)cc1 (stereo not drawn),IC50,Protein skinhead-1,> 100 µM (inactive)
COC(=O)c1cc(C(=O)OCC(=O)c2ccc3c(c2)NC(=O)CO3)cc([N+](=O)[O-])c1,IC50,Fatty acid synthase [1],13.6 µM (active)
same,IC50,Fatty acid synthase [2],30.9 µM (inactive)
COc1ccc(NS(=O)(=O)c2cccc(-c3nnc(-c4ccccc4)o3)c2)cc1,IC50,Protein skinhead-1,> 100 µM (inactive)
CCOC(=O)C1=C(c2ccccc2)O/C(=C(/C(=O)OC)C(F)(F)F)S1,IC50,[7],> 20 µM (inactive)
Cc1ccc(-c2csc(N3CCC[C@@H]3C(=O)NCCn3c(-c4ccncc4)nc4ccccc43)n2)cc1,IC50,H9c2,> 79 µM (inactive)
CCN(CC)CCNC(=O)c1cc2c(s1)-c1ccccc1SC2,EC50,[9],2.27 µM (active)
same,EC50,[10],7.38 µM (active)
same,IC50,[7],> 20 µM (inactive)
COc1ccc(C(=O)Nc2ccc3oc(-c4cccc(F)c4)nc3c2)cc1OC,IC50,[7],> 20 µM (inactive)
O=C(Cc1cccc(C(F)(F)F)c1)OCN1C(=O)c2ccccc2C1=O,IC50,Fatty acid synthase [1],16.8 µM (active)
same,IC50,Fatty acid synthase [2],11.6 µM (active)
CCOc1ccc2[nH]c(SCC(=O)OC)c([N+](=O)[O-])c2c1,IC50,[3],> 66 µM (inactive)
same,IC50,[5],41 µM (inactive)
O=c1c2ccccc2oc2nc(-c3ccco3)n(Cc3ccccc3)c(=O)c12,IC50,H9c2,> 79 µM (inactive)
NS(=O)(=O)c1ccc(CCNC(=O)c2ccc(C#CC3(O)CCCCC3)cc2)cc1,EC50,[11],7.97 µM (active)
same,IC50,H9c2,> 79 µM (inactive)
COCCn1c(CCC(=O)O)nc2c1c(=O)[nH]c(=O)n2CC(C)C,IC50,Protein skinhead-1,> 100 µM (inactive)
COc1ccc(OC)c(S(=O)(=O)N2CCCCC2C(=O)N2CCN(c3ccccn3)CC2)c1 (stereo not drawn),IC50,[3],> 66 µM (inactive)
same,IC50,[5],> 66 µM (inactive)
O=C(NC1CCCCCC1)C(=S)N1CCOCC1,IC50,[3],> 66 µM (inactive)
same,IC50,[5],> 66 µM (inactive)
CCOC(=O)C1CCN(C(=O)c2ccc3c(c2)S(=O)(=O)c2ccccc2C3=O)CC1,IC50,Protein skinhead-1,> 100 µM (inactive)
CN(C)CCCNC(=O)CC1C[C@H](C(=O)N2CCOCC2)[C@@]2(CCC3CCCC3)c3[nH]c4ccccc4c3CCN2C1=O (stereo partly drawn),IC50,Fatty acid synthase [1],2.12 µM (active)
same,IC50,Fatty acid synthase [2],4.82 µM (active)
Cc1cc(C)nc(SCNC(=O)c2ccc(Cl)cc2)n1,IC50,[3],> 66 µM (inactive)
same,IC50,[5],> 66 µM (inactive)
COc1cc(-c2cc(NC(C)=O)c3ncc(-c4ccccc4)n3c2)cc(OC)c1OC,IC50,H9c2,> 79 µM (inactive)
O=C(CC1C[C@H](C(=O)N2CCOCC2)[C@@]2(CCC3CCCC3)c3[nH]c4ccccc4c3CCN2C1=O)NCc1ccco1 (stereo partly drawn),IC50,Fatty acid synthase [1],1.25 µM (active)
same,IC50,Fatty acid synthase [2],0.778 µM (active)
CC1(C(=O)NC(=S)N(CCC#N)c2ccccc2)CC1(Cl)Cl (stereo not drawn),IC50,[3],> 66 µM (inactive)
same,IC50,[5],> 66 µM (inactive)
COc1ccc(-c2nnc(SCC(=O)Nc3ncc(C(F)(F)F)cc3Cl)n2CC(C)C)cc1,IC50,Fatty acid synthase [1],2.11 µM (active)
same,IC50,Fatty acid synthase [2],3.55 µM (active)
CCCc1cc(C(=O)Nc2ccc(Cl)cn2)cs1,IC50,Protein skinhead-1,> 100 µM (inactive)
Cc1nn(C)cc1C(C(=O)NC1CCCCC1)N(C(=O)Cc1cccs1)c1ccc(C(C)C)cc1 (stereo not drawn),IC50,Fatty acid synthase [1],8.86 µM (active)
same,IC50,Fatty acid synthase [2],4.06 µM (active)
CCC[C@@H](CN1CCC[C@H]1CN1C(N)=NC[C@@H]1Cc1ccccc1)N1C[C@@H](Cc2ccccc2)N(CCc2ccc(Cl)c(Cl)c2)C1=N,IC50,[7],> 20 µM (inactive)

# Source: ChEMBL document CHEMBL1201862, “PubChem BioAssay data set” (2004)
